Laboratory results taken from patent US9353090B2, “Heterocyclic carboxylic acids as activators of soluble guanylate cyclase” (Boehringer Ingelheim International GmbH, priority 2014, dated 2016).
Values after ≈ are worked out from the molar mass of the structure shown.

Key:
[1] = target: human soluble guanylate cyclase alpha 1 and beta 1 subunits (sGC) (Homo sapiens (Human), UniProt Q02108+Q02153); test: sGC cellular activator assay (cGMP, HTRF), in the presence and absence of 50% human serum; assay type: cell-based; conditions: CHO cells stably expressing human sGC alpha 1/beta 1, preincubated with 40 microM ODQ; cGMP by HTRF; Table 2 does not state whether with or without 50% human serum
Sequence of human soluble guanylate cyclase alpha 1 and beta 1 subunits (sGC) (Q02108 whole entry partner): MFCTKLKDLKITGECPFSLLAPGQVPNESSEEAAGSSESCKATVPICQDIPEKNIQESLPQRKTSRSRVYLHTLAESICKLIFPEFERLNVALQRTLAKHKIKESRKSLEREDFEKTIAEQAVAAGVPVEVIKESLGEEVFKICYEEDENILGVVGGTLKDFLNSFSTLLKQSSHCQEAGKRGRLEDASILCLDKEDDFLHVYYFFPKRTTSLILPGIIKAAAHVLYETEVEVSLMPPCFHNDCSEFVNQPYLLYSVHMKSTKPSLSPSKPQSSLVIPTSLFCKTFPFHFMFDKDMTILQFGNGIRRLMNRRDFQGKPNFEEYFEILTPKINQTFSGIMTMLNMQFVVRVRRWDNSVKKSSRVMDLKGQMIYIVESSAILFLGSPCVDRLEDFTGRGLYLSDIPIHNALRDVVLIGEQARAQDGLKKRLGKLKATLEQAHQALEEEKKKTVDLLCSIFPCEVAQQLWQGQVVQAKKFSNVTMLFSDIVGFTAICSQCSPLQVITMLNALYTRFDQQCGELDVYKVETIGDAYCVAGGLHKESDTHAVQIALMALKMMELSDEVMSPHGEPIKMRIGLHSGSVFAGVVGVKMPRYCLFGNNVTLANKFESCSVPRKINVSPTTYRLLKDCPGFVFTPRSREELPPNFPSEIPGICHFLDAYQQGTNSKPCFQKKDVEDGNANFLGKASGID
Sequence of human soluble guanylate cyclase alpha 1 and beta 1 subunits (sGC) (Q02153 whole entry): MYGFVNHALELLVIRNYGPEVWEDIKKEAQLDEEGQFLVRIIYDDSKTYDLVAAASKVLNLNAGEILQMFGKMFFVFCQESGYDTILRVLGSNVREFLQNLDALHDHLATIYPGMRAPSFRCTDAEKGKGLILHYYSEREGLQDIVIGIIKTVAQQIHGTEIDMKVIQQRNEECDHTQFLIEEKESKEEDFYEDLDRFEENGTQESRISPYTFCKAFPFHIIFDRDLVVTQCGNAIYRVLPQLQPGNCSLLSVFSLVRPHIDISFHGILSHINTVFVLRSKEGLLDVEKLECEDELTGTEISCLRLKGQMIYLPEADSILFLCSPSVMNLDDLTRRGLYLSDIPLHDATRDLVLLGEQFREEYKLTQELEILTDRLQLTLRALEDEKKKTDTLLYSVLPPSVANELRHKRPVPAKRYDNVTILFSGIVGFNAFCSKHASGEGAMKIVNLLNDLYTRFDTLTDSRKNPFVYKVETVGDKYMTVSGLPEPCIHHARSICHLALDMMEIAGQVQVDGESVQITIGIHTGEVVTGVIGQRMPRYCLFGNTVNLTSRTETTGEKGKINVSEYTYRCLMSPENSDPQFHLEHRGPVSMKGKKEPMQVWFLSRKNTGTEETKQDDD
In short: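 First, CHO-sGC (human α1β1) cells get 1 h ODQ at 40 microM with IBMX and 0.1% BSA. Finally, cGMP is quantified by HTRF and EC50 computed.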

[2] = Human liver microsome (HLM) metabolic stability assay; assay type: in vitro ADME; conditions: human liver microsomes
In short: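 Remaining parent measured by LC/MS/MS (ESI, MRM) at 5, 15, 30 and 60 min relative to 0 min. Incubation: 1 uM compound, HLMs, NADPH-started, 37° C., 60 min total, single replicate. Slope of ln(% remaining) gives t1/2 = 0.693/slope, then CLint, CLh and % Qh.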

physchem = conditions: kinetic from dmso stock
Protocol: Solubility is measured by the following method.
100 uL, 10 mM DMSO stock solution of each compound is prepared in a 96 well plate format. The experiment is done in single determination at 3 pH values (2.2, 4.5 and 6.8). For each pH and one reference, 40 uL of each compound is needed.
McIlvaine pH 2.2: To 2.076 g citric acid monohydrate and 0.043 g Na2HPO4×2H2O add 100 ml deionized water
McIlvaine pH 4.5: To 1.166 g citric acid monohydrate and 1.585 g Na2HPO4×2H2O add 100 ml deionized water
McIlvaine pH 6.8: To 0.476 g citric acid monohydrate and 2.753 g Na2HPO4×2H2O add 100 ml deionized water
With a suitable liquid handling device (Multipette® or a liquid handler) 390 uL of each buffer solution and 10 uL of compound is added to each well of a 96 deep well plate. The plates are covered firmly and shaken for 24 h on an over head shaker (at 54 RPM) at room temperature. The DMSO content in the final buffer is 2.5% v/v.
After 24 h the plates are centrifuged to remove droplets on the lid before opening (for ˜5 min at 2500 RPM).
The filtration is done under vacuum with Millipore 96 well filter plate. Filtrate is collected in a deep well plate and transferred to a suitable plate for UPLC analysis.
The reference plate is prepared by adding 10 uL of compound to 390 uL of 50:50 acetonitrile/water in a 96 deep well plate and transferred to a suitable plate for UPLC analysis. Wells are checked visually for precipitation, any presence noted under comments in reported results.
The samples are measured with UPLC-UV using the chromatographic method described below.
Waters Empower®2 software is used for generating Sample Sets (according to the plate layout), Sample Set Methods and Instrument Methods.
One Sample Set comprises the methods for three 96 well plates (one reference plate and two sample plates, and includes one Sample Set Method and one Instrument Method).
Data Processing and Analysis
The UV chromatograms collected at 254 nm are integrated and processed.
It is assumed that the compound is completely dissolved in the reference solution (50:50 acetonitrile/water)

[3] = pH 2.2, aqueous buffer, Solubility (pH 2.2)
[4] = pH 4.5, aqueous buffer, Solubility (pH 4.5)
[5] = pH 6.8, aqueous buffer, Solubility (pH 6.8)

SMILES | EC50 [1] | Metabolic stability (Qh %), % hepatic blood flow [2] | solubility at 24 h (physchem; [3]) | solubility at 24 h (physchem; [4]) | solubility at 24 h (physchem; [5])
Cc1cccc(-c2csc(N3C[C@@H]4C[C@]4(C(=O)O)C3)n2)c1OCc1cc(C#N)c2c(c1)CCN(C1COC1)C2 [Compound 141] | 34 nM | <24% | 110 µg/mL (≈ 203 µM) | 38 µg/mL (≈ 70 µM) | 81 µg/mL (≈ 149 µM)
CO[C@@H]1CN(c2nc(-c3cccc(C)c3OCc3ccc4c(c3C)CCN(C3CCOCC3)C4)cs2)CC[C@@H]1C(=O)O [Compound 173] | 21 nM | <24% | 120 µg/mL (≈ 203 µM) | 71 µg/mL (≈ 120 µM) | 75 µg/mL (≈ 127 µM)
CO[C@@H]1CN(c2cccc(-c3cccc(C)c3OCc3cc(C)c4c(c3)CCN(C3CCOCC3)C4)n2)CC[C@H]1C(=O)O [Compound 299] | 152 nM | 31% | 134 µg/mL (≈ 229 µM) | 90.8 µg/mL (≈ 155 µM) | 70.8 µg/mL (≈ 121 µM)
COC[C@H]1N(c2cccc(-c3cccc(C)c3OCc3cc(C)c4c(c3)CCN(C3CCOC3)C4)n2)C[C@@H]2C[C@@]21C(=O)O (single isomer, unassigned) [Compound 51] | 27 nM | 28% | 110 µg/mL (≈ 188 µM) | 94 µg/mL (≈ 161 µM) | 74 µg/mL (≈ 127 µM)
CO[C@@H]1CN(c2cccc(-c3cccc(C)c3OCc3ccc4c(c3C)CCN(C3COC3)CC4)n2)CC[C@H]1C(=O)O [Compound 290] | 228 nM | <24% | 119 µg/mL (≈ 208 µM) | 80 µg/mL (≈ 140 µM) | 66.5 µg/mL (≈ 116 µM)
Cc1c(COc2ccccc2-c2ccnc(N3C[C@@H]4C[C@]4(C(=O)O)C3)n2)ccc2c1CCN(C1CCOCC1)C2 [Compound 188] | 150 nM | <24% | 110 µg/mL (≈ 203 µM) | 50 µg/mL (≈ 92.5 µM) | 54 µg/mL (≈ 99.9 µM)
CCOC[C@@H]1N(c2cccc(-c3cccc(C)c3OCc3cc(C)c4c(c3)CCN(C3CCOCC3)C4)n2)C[C@@H]2C[C@@]21C(=O)O [Compound 316] | 222 nM | 39% | 147 µg/mL (≈ 240 µM) | 149 µg/mL (≈ 243 µM) | 142 µg/mL (≈ 232 µM)
Cc1ccc(OCc2ccc3c(c2C)CCN(C2COC2)CC3)c(-c2csc(N3C[C@@H]4C[C@]4(C(=O)O)C3)n2)c1 [Compound 149] | 34 nM | <24% | 98 µg/mL (≈ 180 µM) | 37 µg/mL (≈ 67.8 µM) | 35 µg/mL (≈ 64.1 µM)
CCO[C@@H]1CN(c2cccc(-c3cccc(Cl)c3OCc3cc(C)c4c(c3)CCN(C3CCOCC3)C4)n2)CC[C@@H]1C(=O)O [Compound 259] | 65 nM | 44% | 150 µg/mL (≈ 241 µM) | 86.8 µg/mL (≈ 140 µM) | 58 µg/mL (≈ 93.5 µM)

Now those with a lower EC50 [1], led by results:

EC50 [1] | Metabolic stability (Qh %), % hepatic blood flow [2] | solubility at 24 h (physchem; [3]) | solubility at 24 h (physchem; [4]) | solubility at 24 h (physchem; [5]) | SMILES
19 nM | <24% | 110 µg/mL (≈ 203 µM) | 90 µg/mL (≈ 166 µM) | 73 µg/mL (≈ 135 µM) | COc1cc(COc2c(C)cccc2-c2cccc(N3C[C@@H]4C[C@]4(C(=O)O)C3)n2)cc2c1CN(C1COC1)CC2 [Compound 28]
14 nM | 58% | 137 µg/mL (≈ 240 µM) | 99.6 µg/mL (≈ 174 µM) | 80.5 µg/mL (≈ 141 µM) | CO[C@H]1CN(c2cccc(-c3cccc(C)c3OCc3ccc4c(c3C)CCN(C3COC3)CC4)n2)CC[C@H]1C(=O)O [Compound 282]
1 nM | 37% | 130 µg/mL (≈ 228 µM) | 110 µg/mL (≈ 193 µM) | 53 µg/mL (≈ 93 µM) | Cc1c(COc2ccccc2-c2cccc(N3CC[C@@]4(C(=O)O)C[C@H]4C3)n2)ccc2c1CCN(C[C@H]1COCCO1)C2 [Compound 9]
4 nM | <24% | 120 µg/mL (≈ 228 µM) | 88 µg/mL (≈ 167 µM) | 50 µg/mL (≈ 95.1 µM) | Cc1cccc(-c2cccc(N3C[C@@H]4C[C@]4(C(=O)O)C3)n2)c1OCc1ccc2c(c1)CCN(C1COC1)CC2 [Compound 32]
2 nM | <24% | 120 µg/mL (≈ 208 µM) | 55 µg/mL (≈ 95.5 µM) | 8.1 µg/mL (≈ 14.1 µM) | Cc1ccc(OCc2ccc3c(c2)CCN(CC2COCCO2)C3)c(-c2csc(N3CC[C@@]4(C(=O)O)C[C@H]4C3)n2)c1 (stereo partly drawn) [Compound 112]
9 nM | <24% | 110 µg/mL (≈ 202 µM) | 70 µg/mL (≈ 128 µM) | 56 µg/mL (≈ 103 µM) | Cc1cccc(-c2csc(N3C[C@@H]4C[C@]4(C(=O)O)C3)n2)c1OCc1ccc2c(c1C)CCN(C1COC1)CC2 [Compound 143]
